Legend:
Assay type in all cases: cell-based, human
[1] = test system: MCF7 cell line (ER+ breast cancer); experiment: 3D-mammosphere formation assay; details: for IC50: Homo sapiens, MCF7, 3D-mammosphere assay; for SI (mammosphere/monolayer MCF7): mammosphere selectivity index, ratio between IC50 values in the 3D and 2D assays against MCF7; for inhibition of MCF7 cells in the mammosphere assay compared to parent compound: concentrations from 1 μM to 100 μM
Source text: As used in the tables, “IC50 (MCF7 mammosphere)” refers to the half maximal inhibitory concentration in the 3D-mammosphere assay, using the ER+ breast cancer cell line, MCF7. The term “IC50 (MCF7 monolayer)” refers to the half maximal inhibitory concentration in the 2D-cell viability assay, using the ER+ breast cancer cell line, MCF7. The term “IC50 (BJ1 monolayer)” refers to the half maximal inhibitory concentration in the 2D-cell viability assay, using the immortalized non-tumoral fibroblast cell line, hTERT-BJ1. The term “SI (mammosphere/monolayer MCF7)” refers to the mammosphere selectivity index, a ratio between IC50 values comparing the biological activity in the 3D and 2D assays against MCF7. The term “SI (BJ1/MCF7 monolayer)” refers to the cancer selectivity index, a ratio between IC50 values comparing the biological activity in the cell viability assays against MCF7 and hTERT-BJ1.
FIGS. 1-3 are dose-response curves for various compounds described herein, using the mammosphere assay. The assay was performed using the MCF7 cell line. The curves are plotted as a mean of two independent experiments, and the standard deviation for each point is represented by vertical bars. The inhibition percentage is shown as a function of the log of the concentration (μM). […] Similar effects are expected for compounds having the general formula [1D].
Mammosphere formation assay: A single cell suspension was prepared using enzymatic (1× Trypsin-EDTA, Sigma Aldrich, cat. #T3924), and manual disaggregation (25 gauge needle). Five thousand cells were plated with in mammosphere medium (DMEM-F12/B27/20 ng/ml EGF/PenStrep), under non-adherent conditions, in six wells plates coated with 2-hydroxyethylmethacrylate (poly-HEMA, Sigma, cat. #P3932). Cells were grown for 5 days and maintained in a humidified incubator at 37° C. at an atmospheric pressure in 5% (v/v) carbon dioxide/air. After 5 days, 3D spheroids with a diameter greater than 50 μm were counted using a microscope, fitted with a graticule eye-piece, and the percentage of cells which formed spheroids was calculated and normalized to one (1=100% MFE; mammosphere forming efficiency). Mammosphere assays were performed in triplicate and repeated three times independently.

[2] = test system: hTERT-BJ1 (immortalized non-tumoral fibroblast cell line); experiment: 2D-cell viability assay (Hoechst staining), hTERT-BJ1 monolayer; details: for IC50: Homo sapiens, Fibroblast, 2D-cell viability assay, hTERT-BJ1; for SI (BJ1/MCF7 monolayer): cancer selectivity index, ratio between IC50 values in cell viability assays against MCF7 and hTERT-BJ1
Source text: (§1) As used in the tables, “IC50 (MCF7 mammosphere)” refers to the half maximal inhibitory concentration in the 3D-mammosphere assay, using the ER+ breast cancer cell line, MCF7. The term “IC50 (MCF7 monolayer)” refers to the half maximal inhibitory concentration in the 2D-cell viability assay, using the ER+ breast cancer cell line, MCF7. The term “IC50 (BJ1 monolayer)” refers to the half maximal inhibitory concentration in the 2D-cell viability assay, using the immortalized non-tumoral fibroblast cell line, hTERT-BJ1. The term “SI (mammosphere/monolayer MCF7)” refers to the mammosphere selectivity index, a ratio between IC50 values comparing the biological activity in the 3D and 2D assays against MCF7. The term “SI (BJ1/MCF7 monolayer)” refers to the cancer selectivity index, a ratio between IC50 values comparing the biological activity in the cell viability assays against MCF7 and hTERT-BJ1. A Hoechst-based viability assay was used to characterize the selectivity of compounds according to the present approach, for the preferential targeting of cancer cells. Briefly, MCF7 cell monolayers were treated with a compound at concentrations ranging from 1 μM to 100 μM, for a period of one day. Cell viability was assessed using Hoechst 33342, a nuclear dye that stains DNA in live cells. The viability of normal human fibroblasts (hTERT-BJ1) treated with the compounds described herein was also assessed in parallel. Quantitation was performed with a plate-reader.

[3] = test system: MCF7 cell line (ER+ breast cancer); experiment: 2D-cell viability assay (Hoechst staining), MCF7 monolayer; details: for IC50: Homo sapiens, MCF7, 2D-cell viability assay, MCF7
Source text: as §1

Structure (SMILES) | IC50 ([1]; MCF7) | IC50 [3] | SI (mammosphere/monolayer MCF7) [1] | IC50 ([2]; Table 3, unit inferred) | SI (BJ1/MCF7 monolayer) [2] | inhibition of cell propagation ([1]; at concentrations as low as 1 μM, preliminary laboratory evaluations) | inhibition of MCF7 cells in the mammosphere assay compared to parent compound [1] | fold improvement in potency in the 3D-mammosphere assay compared to the parent compound ([1]; vs. Ribociclib, MCF7) | IC50 [2] | potency against MCF7 cells compared to parent compound (dose-response curves) ([3]; Hoechst staining assay, MCF7, FIG. 4 (FIG. 1 cited in same passage)) | non-toxic in the 2D-cell viability assay up to a concentration ([3]; MCF7 monolayer) | potency on hTERT-BJ1 compared to Compound [1C] (dose-response curves) ([2]; Hoechst staining assay, hTERT-BJ1, FIG. 7)
CCCCCCCCCCCCCC(=O)N1CCN(c2ccc(Nc3ncc4c(C)c(C(C)=O)c(=O)n(C5CCCC5)c4n3)nc2)CC1 [Compound [2C], 6-acetyl-8-cyclopentyl-5-methyl-2-[[5-(4-tetradecanoylpiperazin-1-yl)-2-pyridyl]amino]pyrido[2,3-d]pyrimidin-7-one] | ~5100 nM | > 30000 nM | >5 | – | – | – | remarkably improved inhibition | – | > 90000 nM | – | ≤ 30 µM | –
CN(C)C(=O)c1cc2cnc(Nc3ccc(N4CCNCC4)cn3)nc2n1C1CCCC1 [Ribociclib, 7-cyclopentyl-N,N-dimethyl-2-[(5-piperazin-1-ylpyridin-2-yl)amino]pyrrolo[2,3-d]pyrimidine-6-carboxamide] | ~1500 nM | ~2000 nM | 1.3 | – | >45 | – | – | – | > 90000 nM | – | – | more potent at most concentrations tested

These reach a lower IC50 ([1]; MCF7). Values come first.

IC50 ([1]; MCF7) | IC50 [3] | Structure (SMILES) | SI (mammosphere/monolayer MCF7) [1] | IC50 ([2]; Table 3, unit inferred) | SI (BJ1/MCF7 monolayer) [2] | inhibition of cell propagation ([1]; at concentrations as low as 1 μM, preliminary laboratory evaluations) | inhibition of MCF7 cells in the mammosphere assay compared to parent compound [1] | fold improvement in potency in the 3D-mammosphere assay compared to the parent compound ([1]; vs. Ribociclib, MCF7) | IC50 [2] | potency against MCF7 cells compared to parent compound (dose-response curves) ([3]; Hoechst staining assay, MCF7, FIG. 4 (FIG. 1 cited in same passage)) | non-toxic in the 2D-cell viability assay up to a concentration ([3]; MCF7 monolayer) | potency on hTERT-BJ1 compared to Compound [1C] (dose-response curves) ([2]; Hoechst staining assay, hTERT-BJ1, FIG. 7)
< 40 nM | 11000 nM | CCN1CCN(Cc2ccc(Nc3ncc(F)c(-c4cc(F)c5nc(C)n(C(C)C)c5c4)n3)nc2)CC1 [Abemaciclib] | >50 | 30000 ± 6000 nM | 2.7 | – | – | – | – | – | – | –
~200 nM | ~2000 nM | CCCCCCCCCCCCCC(=O)N1CCN(c2ccc(Nc3ncc4cc(C(=O)N(C)C)n(C5CCCC5)c4n3)nc2)CC1 [Compound [1C], 7-cyclopentyl-N,N-dimethyl-2-[[5-(4-tetradecanoylpiperazin-1-yl)-2-pyridyl]amino]pyrrolo[2,3-d]pyrimidine-6-carboxamide] | 10 | – | >45 | ~100% | remarkably improved inhibition | 7 fold | > 90000 nM | more potent | – | –
~200 nM | ~100 nM | CC(=O)c1c(C)c2cnc(Nc3ccc(N4CCNCC4)cn3)nc2n(C2CCCC2)c1=O [Palbociclib, 6-acetyl-8-cyclopentyl-5-methyl-2-(5-piperazin-1-yl-pyridin-2-ylamino)-8H-pyrido[2,3-d]pyrimidin-7-one] | non-selective | – | >900 | – | – | – | > 90000 nM | – | – | –
